Source: patent US9738902B2, “Modified PYR/PYL receptors activated by ligands” (priority 2013, dated 2017)

How the values were obtained:
PYR1 K59R V164H = target: T1, PYR1 K59R V164H (Arabidopsis thaliana, UniProt O49686, K59R/V164H); assay: Y2H Pocket Library Screen (HAB1, X-gal); assay type: cell-based
T1 construct: expressed in transfected cells; host or cells: S. cerevisiae Y190
Summary of the method: (§1)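 Y190 two-hybrid strains (PYR1 mutant + HAB1 prey), SD –Leu –Trp agar, single compound 100 μM, 30° C 2 d; chloroform lysis, X-gal stain scored for responsiveness.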

PYR1 K59R T162L = target: T2, PYR1 K59R T162L (Arabidopsis thaliana, UniProt O49686, K59R/T162L); assay: Y2H Pocket Library Screen (HAB1, X-gal); assay type: cell-based
T2 construct: expressed in transfected cells; host or cells: S. cerevisiae Y190
Summary of the method: as §1

PYR1 K59R V164L = target: T3, PYR1 K59R V164L (Arabidopsis thaliana, UniProt O49686, K59R/V164L); assay: Y2H Pocket Library Screen (HAB1, X-gal); assay type: cell-based
T3 construct: expressed in transfected cells; host or cells: S. cerevisiae Y190
Summary of the method: as §1

PYR1 K59R V83L = target: T4, PYR1 K59R V83L (Arabidopsis thaliana, UniProt O49686, K59R/V83L); assay: Y2H Pocket Library Screen (HAB1, X-gal); assay type: cell-based
T4 construct: expressed in transfected cells; host or cells: S. cerevisiae Y190 yeast two-hybrid reporter strain
Summary of the method: as §1

PYR1 K59R T162W = target: T5, PYR1 K59R T162W (Arabidopsis thaliana, UniProt O49686, K59R/T162W); assay: Y2H Pocket Library Screen (HAB1, X-gal); assay type: cell-based
T5 construct: expressed in transfected cells; host or cells: S. cerevisiae Y190
Summary of the method: as §1

PYR1 K59R M158L = target: T6, PYR1 K59R M158L (Arabidopsis thaliana, UniProt O49686, K59R/M158L); assay: Y2H Pocket Library Screen (HAB1, X-gal); assay type: cell-based
T6 construct: expressed in transfected cells; host or cells: S. cerevisiae Y190 two-hybrid reporter strain
Summary of the method: as §1

[1] = test system: MDP1 and MDP2 genotypes (35S::PYR1^MANDI); assay: survival after water deprivation and re-watering; assay type: in vivo, Arabidopsis; settings: 1 μM mandipropamid, 11 days water deprivation
Protocol: Examples 6 and 8 disclosed that mandipropamid treatments of PYR1^MANDI transgenic plants are sufficient to close guard cells (as indicated by thermal imaging) and confer drought tolerance. To investigate these responses further we performed three additional experiments using wild type Columbia, PYR1-OX and the MDP1 and MDP2 genotypes. Each experiment was conducted independently of the other at different times over the course of 8 months. Each experiment characterized 3 pots of each genotype (each pot contained 4 plants). After 2 weeks (exp. 1) or 3 weeks (Experiments 2 and 3) watering was ceased and the plants were treated with a mock or 1 μM mandipropamid solution made in water containing 0.02% Silwet L-77. These treatments were repeated every 4 (Experiment 1) or 3 days (Experiments 2 and 3). […] After 10 to 11 days of water deprivation the plants were re-watered to assess survival rates after extreme water deprivation. […] Inset in each image are the survival counts from Experiment 1 (upper numbers) and Experiments 2 and 3 (lower numbers). The survival rates have been separated because the experimental protocol for Experiment 1 differed from Experiments 2 and 3.
Plants were grown for ˜4 weeks until initial floral meristems became obvious, after which watering was ceased and the plants were treated with either a mock or 1 μM mandipropamid solution. […]

[2] = test system: MDP1 and MDP2 transgenic plants; assay: qRT-PCR of ABA-regulated genes RD29B and RAB18; assay type: in vivo, Arabidopsis; settings: MDP1 and MDP2, 2 μM mandipropamid, 8 hours
Protocol: (§2) One of ABA's major effects is to regulate gene expression. We therefore examined the effects of ABA and mandipropamid on gene expression in wild type, PYR-OX, MDP1 and MPD2 transgenic plants. Seed of the wild type or transgenic lines were surface sterilized, stratified for 4 days at 4° C. and then grown for 10 days at room temperature under continuous illumination in a liquid culture consisting of 0.5×MS salts and 0.5% sucrose and grown with continuous shaking to provide aeration. After 10 days, the culture solutions were adjusted to contain 50 μM ABA, 2 μM mandipropamid, or a mock treatment. After 8 hours exposure to the test compounds RNA was isolated using RNAEasy™ Plant RNA isolation kit (Qiagen, USA) and treated with DNAse. The purified RNA was utilized in qRT-PCR reactions using primers for the ABA-regulated genes RD29B or RAB18. Biological triplicate and triple technical replicate measurements were conducted. To perform qRT-PCR analyses, cDNA was generated from 5 μg of total RNA using superscript reverse transcriptase III (Invitrogen, USA), in reaction mixture containing a oligo-dT20 (SEQ ID NO:110) and a ribosomal RNA primer. Real-time quantitative PCR analysis was performed by ΔCt method of relative quantification. PCR mixtures contained cDNA, Maxima® SYBR green/Fluorescein qPCR master mix (Fermentas, USA) and 330 nM of each gene-specific primer. RT-PCRs were conducted using a BioRad CFX96 Real-Time PCR System and the data were processed using the BioRad CFX Manager software (BioRad, USA). PCRs were performed under the following cycling conditions: 3 min at 95° C., followed by 40 cycles of 10 sec at 95° C., 10 sec at 55° C. and 30 sec at 72° C. in 96-well optical reaction plates (BioRad, USA). The specificity of amplicons was verified by melting curve (disassociation) analysis (60-95° C.) after 40 cycles. Input cDNA was normalized using an internal control gene, PEX4 (AT5G25760).

PYR1-OX = assay: qRT-PCR of ABA-regulated genes RD29B and RAB18; assay type: in vivo, Arabidopsis; settings: 2 μM mandipropamid, 8 hours
Protocol: as §2

wild type = assay: qRT-PCR of ABA-regulated genes RD29B and RAB18; assay type: in vivo, Arabidopsis; settings: 2 μM mandipropamid, 8 hours
Protocol: as §2

PYR1 K59R F108L = target: T7, PYR1 K59R F108L (Arabidopsis thaliana, UniProt O49686, F108L/K59R); assay: Y2H Pocket Library Screen (HAB1, X-gal); assay type: cell-based
T7 construct: expressed in transfected cells; host or cells: S. cerevisiae Y190 yeast two-hybrid reporter strain
Summary of the method: as §1

T4 sequence (O49686 whole entry K59R/V83L): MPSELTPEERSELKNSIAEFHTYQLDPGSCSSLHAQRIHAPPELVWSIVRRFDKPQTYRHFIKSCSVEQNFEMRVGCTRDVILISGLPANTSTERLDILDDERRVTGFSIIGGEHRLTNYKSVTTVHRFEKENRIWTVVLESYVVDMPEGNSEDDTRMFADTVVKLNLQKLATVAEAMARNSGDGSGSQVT
T4 sequence (Q9CAJ0 23-511, further chain): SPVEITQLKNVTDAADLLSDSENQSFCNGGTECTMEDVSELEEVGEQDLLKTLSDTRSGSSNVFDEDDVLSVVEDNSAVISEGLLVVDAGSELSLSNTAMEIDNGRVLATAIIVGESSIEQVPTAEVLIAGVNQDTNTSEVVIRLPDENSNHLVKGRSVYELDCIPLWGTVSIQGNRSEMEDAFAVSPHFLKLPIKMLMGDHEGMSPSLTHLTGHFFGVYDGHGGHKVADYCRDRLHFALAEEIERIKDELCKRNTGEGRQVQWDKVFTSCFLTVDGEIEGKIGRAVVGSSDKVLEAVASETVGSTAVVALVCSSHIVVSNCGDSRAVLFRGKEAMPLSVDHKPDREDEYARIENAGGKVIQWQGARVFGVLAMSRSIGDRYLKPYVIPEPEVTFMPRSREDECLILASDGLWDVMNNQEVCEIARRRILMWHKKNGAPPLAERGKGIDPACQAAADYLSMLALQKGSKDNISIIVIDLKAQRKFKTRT
T2 sequence (O49686 whole entry K59R/T162L): as the sequence (O49686 whole entry K59R/V83L) above, with L83V, T162L counted along it
T2 sequence (Q9CAJ0 23-511 partner): as the sequence (Q9CAJ0 23-511, further chain) above
T7 sequence (O49686 whole entry K59R/F108L): as the sequence (O49686 whole entry K59R/V83L) above, with L83V, F108L counted along it
T7 sequence (Q9CAJ0 23-511 partner): as the sequence (Q9CAJ0 23-511, further chain) above
T5 sequence (O49686 whole entry K59R/T162W): as the sequence (O49686 whole entry K59R/V83L) above, with L83V, T162W counted along it
T5 sequence (Q9CAJ0 23-511, further chain): as the sequence (Q9CAJ0 23-511, further chain) above
T6 sequence (O49686 whole entry K59R/M158L): as the sequence (O49686 whole entry K59R/V83L) above, with L83V, M158L counted along it
T6 sequence (Q9CAJ0 23-511 partner): as the sequence (Q9CAJ0 23-511, further chain) above
T1 sequence (O49686 whole entry K59R/V164H): as the sequence (O49686 whole entry K59R/V83L) above, with L83V, V164H counted along it
T1 sequence (Q9CAJ0 23-511 partner): as the sequence (Q9CAJ0 23-511, further chain) above
T3 sequence (O49686 whole entry K59R/V164L): as the sequence (O49686 whole entry K59R/V83L) above, with L83V, V164L counted along it
T3 sequence (Q9CAJ0 23-511 partner): as the sequence (Q9CAJ0 23-511, further chain) above

Structure (SMILES)	Threshold (PYR1 K59R V164H)	Threshold (PYR1 K59R T162L)	Threshold (PYR1 K59R V164L)	Threshold (PYR1 K59R V83L)	Threshold (PYR1 K59R T162W)	Threshold (PYR1 K59R M158L)	survival rates after water deprivation and re-watering, relative to wild type and PYR1-OX controls [1]	transcription of RD29B and RAB18 [2]	transcription of RD29B and RAB18 (PYR1-OX)	transcription of RD29B and RAB18 (wild type)	Threshold (PYR1 K59R F108L)
N#Cc1c(Cl)cccc1Cl [Dichlobenil, dichlobenil]	100 µM	100 µM	100 µM	100 µM	100 µM	100 µM	–	–	–	–	–
C#CCOc1ccc(CCNC(=O)C(OCC#C)c2ccc(Cl)cc2)cc1OC (centres unmarked) [Mandipropamid, mandipropamid]	–	–	–	–	–	–	greatly improved	high-level transcription	does not do so	does not do so	100 µM
